Test results taken from paper PMC12340639 (ACS Pharmacology & Translational Science, 2025).

Tested on: ER-positive MCF7 human breast cancer cells
Assay: MCF7 cell proliferation assay
Type: cell-based
Conditions: MCF7, 120 h, read-out: Cell Proliferation EC50

C[C@]12CC[C@@H]3c4ccc(O)cc4CC[C@H]3[C@@H]1CC[C@@H]2O [E2, 17β-estradiol]
EC50: 3.2 pM
